The numbers were not newly measured in patent US20140065213A1, “Sustained Release Paracetamol Formulations” (GlaxoSmithKline, LLC, priority 2011, published 2014), which cites them from elsewhere.

SMILES strings stand for the structures.

With `CC(=O)Nc1ccc(O)cc1` [paracetamol, N-acetyl-p-aminophenol], where the note is “oral doses of conventional immediate release tablets”, the “tmax (maximum plasma concentration)” value is 0.5 to 1.5 h. Besides, the elimination half-life (reported) is 1.9 to 2.5 h.
